| SMILES | melting point [°C] |
| --- | --- |
| O=C(NNc1ccccc1)c1ccccc1 | 168 |
| O=[N+]([O-])c1cccc(F)c1 | 41 |
| CCOC(=O)c1nn(-c2ccc(C)cc2)c(=N)c(C#N)c1C | 150 |
| COc1ccc(C(c2ccc(OC)cc2)C(Cl)(Cl)Cl)cc1 | 87 |
| Cc1cc(C)c(C)c(S(=O)(=O)NCC(=O)O)c1C | 167 |
| Cc1c(-c2ccccc2)n(C)c2ccccc12 | 69 |
| Oc1cc(Cl)cnc1O | 295 |
| NC(=O)C(F)(F)C(F)(F)C(F)(F)F | 103 to 105 |
| COc1ccc(/C=C/C=O)cc1 | 55 to 60 |
| O=C(CBr)c1ccc(N2CCOCC2)cc1 | 112 to 115 |
| CC(=O)C1CCC2C3CCC4CC(O)CCC4(C)C3CCC12C (stereo unspecified) | 194 |
| NC(=O)C=CC(N)=O | 276 |
| CC=C(C)C(=O)OC1CCN2CC=C(COC(=O)C(O)(C(C)OC)C(C)(C)O)C12 (stereo unspecified) | 97 |
| COc1ccc(C(=O)c2ccccc2Cl)cc1OC | 125 to 126 |
| COC(=N)C1=CC(O)C(O)C(CO)O1 (stereo unspecified) | 196 |
| Cc1nccc(O)c1OCc1ccc(Cl)cc1Cl | 218 to 222 |
| COc1ccc(N/N=C(\C#N)c2nc(C)c(/N=N/c3ccccc3)s2)cc1 | 178 |
| CCCCc1nc(Cl)c(CO)n1Cc1ccc(-c2ccccc2-c2nn[nH]n2)cc1 | 184 |
| Cc1c(-c2ccccc2)c2ccccc2n1C | 111 |
| Cc1ccc2cc([N+](=O)[O-])ccc2n1 | 165 to 166 |
| CC(C)OP(=O)(CCP(=O)(OC(C)C)OC(C)C)OC(C)C | 35.5 |
| CSC(SC)=C(C#N)C(=O)c1cccc(C(F)(F)F)c1 | 60 |
| Cn1c(=S)sc2ccccc21 | 90 |
| CBr | -93.7 |
| CC(=O)Oc1c(C)c(C)c2c(c1C)CCC(C)(CCCC(C)CCCC(C)CCCC(C)C)O2 (stereo unspecified) | -28 |
| O=C(Oc1c(F)c(F)c(F)c(F)c1F)c1ccc(-c2ccccc2)nc1 | 113 to 115 |

| SMILES | melting point [°C] |
| --- | --- |
| C=CCNC(N)=O | 85 |
| NC(=O)CS(=O)(=O)c1ccccc1 | 156 |
| Cc1ccc2cc[nH]c2c1 | 31 |
| CC1(c2ccc([N+](=O)[O-])cc2)Nn2c(nnc2C(F)(F)F)S1 (stereo unspecified) | 255 |
| C#CCCCCCCCCCCCCC | 10 |
| COC(=O)c1cccc(N)c1 | 52 to 55 |
| Nc1cc(CCNC(=O)c2ccccc2)ccc1CCNC(=O)c1ccccc1 | 210 |
| CCCCCCCC(=O)Oc1ccc(/N=N/c2ccc(CCCC)cc2)cc1 | 63 to 64.2 |
| O=c1oc(=O)c2cc3c(=O)oc(=O)c3cc12 | 283 to 287 |
| CC12C=CC(=O)C=C1C(F)CC1C2C(O)CC2(C)C1CCC2(O)C(=O)CO (stereo unspecified) | 210 |
| COC(=O)C1CC2(C(=O)OC)C=CC1C2 (stereo unspecified) | 38 |
| CC(C)OC(N)=O | 93 |
| CCN(CC)CC(=O)Nc1c(C)cc(C)cc1C | 44 |
| COc1c(C(=O)O)csc1Cl | 140 |
| CCOC(=O)c1nn(-c2ccc(C)cc2)c(C)c1C(=O)c1noc(-c2ccc(C)cc2)c1S(=O)(=O)c1ccccc1 | 180 |
| CC(O)CN(CC(C)O)C(=O)COC(=O)c1ccccc1 (stereo unspecified) | 106 |
| C1CCSSC1 | 32.5 |
| Cc1ccc(C(=O)[C@@H]2CCCC[C@H]2C(=O)O)cc1 (relative stereo) | 168 to 171 |
| Fc1cccc(-n2cc[nH]c2=S)c1 | 162 to 164 |
| CC(=O)OC1CC2C(C)C(=O)C3(C(O)CC4C5(C)CCCC4(C(O)OC5)C13)C2O (stereo unspecified) | 220 |
| NS(=O)(=O)c1cccc(C(=O)c2ccccc2)c1 | 144 |
| O=C(O)c1ccc(C(F)(F)F)cc1F | 168 |
| N#Cc1ncccc1N1CCCCC1 | 67 to 69 |
| Cc1cc(C)c2c(c1)CC(C)(C)C(=O)OC2=O | 99 to 100 |
| O=C1OC(c2ccccc2)=NC1=Cc1ccc(Br)cc1 | 192 to 193 |
| c1ccc(CNCc2ccccc2)cc1 | -26 |

| SMILES | melting point [°C] |
| --- | --- |
| CCOC(=O)Nc1ccc(C)cc1[N+](=O)[O-] | 64 to 65 |
| Nc1ccccc1CCCCc1ccccc1N | 74 |
| CNC(=O)Oc1ccc(C)c(C)c1Cl | 124 |
| NC(=O)NN=Cc1ccc([N+](=O)[O-])cc1 | 217 |
| O=S(=O)(O)CCN(CCO)CCO | 152 to 154 |
| CC(=Cc1ccccc1)CC(N)=O | 133 |
| N#Cc1cnc(N)s1 | 185 |
| CC(=O)c1cc(C)cc([N+](=O)[O-])c1O | 135 |
| OC1CN2CCCC(O)C2C1O (stereo unspecified) | 144 |
| O=C(O)/C(=C/c1ccccc1)Cc1ccccc1 | 157 to 158 |
| FC(F)(F)C(Cl)Cl | -107 |
| Oc1c(Cl)c(Cl)cc(Cl)c1Cl | 115 |
| O=C(O)C=CC(=O)Nc1ccc(I)cc1 | 194 |
| O=C(C(=O)c1cccs1)c1cccs1 | 82.5 |
| CNC(C)C1C(O)CC2(C)C3CCC4C(C)(C)C(NC)CCC45CC35CCC12C (stereo unspecified) | 207 |
| CCOC(=O)c1c(NC(=O)Nc2ccccc2)sc2c1CCCC2 | 150 to 152 |
| O=C1c2ccccc2C(=O)C1c1ccc(F)cc1 | 120 |
| CC(Cl)C(C)Cl (stereo unspecified) | -80 |
| CC12CCC(O)(CC1)CC2=O | 55 to 56 |
| CC1(C)SC2C(NC(=O)C(N)c3ccccc3)C(=O)N2C1C(=O)O (stereo unspecified) | 208 |
| O=C(O)c1ccccc1C(=O)Nc1ccc(S(=O)(=O)N=c2[nH]ccs2)cc1 | 273 |
| Brc1ccc(N2CCCCC2)cc1 | 75 to 76 |
| Cc1c(C)c(C)c(CCl)c(CCl)c1C | 135 |
| Clc1ccc2[nH]c(C(Cl)(Cl)Cl)nc2c1 | 223 to 229 |
| CCOC(=O)c1cc2cc([N+](=O)[O-])ccc2o1 | 150 to 155 |
| COC(=O)c1cc(O)cc(Br)c1 | 133 |

| SMILES | melting point [°C] |
| --- | --- |
| O=[N+]([O-])c1cc(Br)cc2c1NCC2 | 131 |
| Cc1ccncc1C#N | 43 |
| Cc1c(C)c2c(c(C)c1O)CCC(C)(CCCC(C)CCCC(C)CCCC(C)C)O2 (stereo unspecified) | 2.5 to 3.5 |
| CCCCNC(=O)n1cc(F)c(=O)[nH]c1=O | 136 |
| CCCCCOc1ccc(/N=N/c2ccc(CCCC)cc2)cc1 | 40.5 to 43 |
| CC(C)(C)OC(=O)N1CCCN(c2cccc(O)c2)CC1 | 143 to 144 |
| OCCOc1ccccc1OCCO | 78 to 82 |
| COC(=O)c1ccc2ccccc2c1 | 77 |
| O=C1c2ccccc2C(=O)c2cc3ccccc3cc21 | 291 |
| Cc1ccc(NC(=O)c2cccc3ccccc23)cc1 | 174 |
| O=C1CC(C(=O)OCc2ccccc2)N1 (stereo unspecified) | 137 to 138 |
| C=CC(N)CCC(=O)O (stereo unspecified) | 209 |
| Cc1nc(CCl)c(C)o1 | 34 to 37 |
| C=C1C(C(=O)O)C1C(=O)O (stereo unspecified) | 197 to 201 |
| CC1(C)C(C(=O)OC(C#N)c2cccc(Oc3ccccc3)c2)C1(C)C (stereo unspecified) | 47.5 |
| O=C(O)C1(c2ccc(Cl)cc2)CCC1 | 80 to 90 |
| CN(C)c1cccc2cccc(N(C)C)c12 | 49 |
| CC(C=CC=C(C)C=CC1=C(C)CCCC1(C)C)=CC=CC=C(C)C=CC=C(C)C=CC1=C(C)C(=O)CCC1(C)C | 179 |
| Cc1cccc2cc3ccccc3c(=O)n12 | 78 |
| Nc1ccnc(Cl)c1 | 93 |
| CC1=NN(c2cccc(Cl)c2)C(=O)C1 | 125 to 128 |
| Cc1cc(/C=C/c2ccccc2N)c(N)cc1N | 151 |
| CC(=O)n1c(C)cc2cc3c(cc21)=NC(C)C=3 (stereo unspecified) | 279 |
| COC(=O)c1ccccc1C(=O)O | 83 |
| S=C=Nc1ccccc1I | 39 |
| N#Cc1ccccc1Oc1ccc(Cl)cc1Cl | 84 to 86 |

| SMILES | melting point [°C] |
| --- | --- |
| COc1cc(C=O)ccc1OCc1c(F)cccc1Cl | 124 to 126 |
| CCCCCCCCC1CCCC1 | -44 |
| CC12CCC3C(CCC4CCCCC43C)C1CCC2O (stereo unspecified) | 166 |
| CC(C)(C)c1cc(CC(=O)O)cc(C(C)(C)C)c1O | 157 to 158 |
| COc1ccc(C(N)=NO)c2ccccc12 | 175 to 176 |
| N#Cc1ccc(Oc2ccc(C(F)(F)F)cc2N)cc1 | 106 to 108 |
| Nc1c(F)cc(F)cc1F | 35 |
| CC(=O)NC(Cc1c[nH]c2ccccc12)C(=O)O (racemic) | 204 to 206 |
| CCOC(=O)C(=CN(O)c1ccccc1)c1ccccc1 | 75 |
| N#CC1=C(N)Oc2c(c(C(F)(F)F)nn2-c2ccccc2)C1c1ccccc1Cl (stereo unspecified) | 166 |
| CN1C(=O)C(=NNc2c(Br)cc(Br)cc2Br)C(=O)N(C)C1=O | 165 |
| O=[N+]([O-])c1ccc(Cl)c(CO)c1 | 77 to 78 |
| Cc1cc(C)n(CN(Cn2nc(C)cc2C)c2ccc(N(Cn3nc(C)cc3C)Cn3nc(C)cc3C)cc2)n1 | 175 |
| Cc1ccc(C2C(C#N)=C(N)Oc3c2c(C(F)(F)F)nn3-c2ccccc2)cc1 (stereo unspecified) | 205 |
| CCCCCCC(=O)CCCCCC | 33 |
| CC(=O)c1ccc(NC(=O)c2ccccc2)c(C(=O)c2ccccc2)c1 | 177 |
| C=CCn1c2c(c3cc(OC)ccc31)CCc1cc(OC)ccc1-2 | 92 to 93 |
| CN1CCN(CCCN2c3ccccc3Sc3ccc(C(F)(F)F)cc32)CC1 | 25 |
| CC(=O)C1CC[C@]2(C)[C@H]3CC[C@]4(C)C(O)CC[C@H]4[C@@H]3CC[C@@]2(C)C1 (stereo partly specified) | 152 |
| COc1cc2cncc(Cc3ccccc3)c2cc1O | 193 |
| CC(=O)OCC1OCC(OC(C)=O)(C2C=Nc3c2ncn(C2(OC(C)=O)COC(COC(C)=O)C2OC(C)=O)c3=O)C1OC(C)=O (stereo unspecified) | 76 |
| ON=Cc1cc(Br)c(O)c(Br)c1 | 198 to 201 |

Source: a melting point compilation (Tetko et al.)
